# Reference: patent US20040110802A1, “Antibacterial benzoic acid derivatives” (priority 2002, published 2004)
# System: SAUR 9218
# Experiment: MIC Test Method, standard agar dilution
# Type: cell-based
# Details: agar dilution, Mueller Hinton agar, incubated overnight at 35° C.; lowest concentration that inhibits visible growth; read-out: SAUR 9218 MIC
# How it was run: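 MIC (μg/ml) was read as the lowest drug level without visible growth of SAUR 9218 after overnight incubation at 35 °C. Inocula of about 10^4 to 10^5 cells per spot were applied to Mueller Hinton agar containing 2-fold serial compound dilutions.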
row,Compound,MIC
1,N#Cc1ccc(NC(=O)c2cc(-c3ccccc3Oc3ccccc3-c3ccccc3)on2)c(C(=O)O)c1,> 128 µg/mL
2,O=C(Nc1ccc(Br)cc1C(=O)O)c1ccc[nH]1,> 128 µg/mL
3,O=C(Nc1ccc(Br)cc1C(=O)O)c1csc(S(=O)(=O)N2CCc3ccccc32)c1,2 µg/mL
4,CC(=O)OC(C(=O)Nc1cccc2cc(C(=O)Nc3ccc(C#N)cc3C(=O)O)[nH]c12)c1ccccc1 (stereo not shown),1 µg/mL
5,O=C(O)c1cc(Br)ccc1NC(=O)c1cc(Cl)cc[n+]1[O-],> 128 µg/mL
6,N#Cc1ccc(NC(=O)c2noc3cc(NS(=O)(=O)Cc4ccccc4)ccc23)c(C(=O)O)c1,1 µg/mL
7,CCOC(=O)CCSc1ccc(C(=O)Nc2ccc(C#N)cc2C(=O)O)cn1,1 µg/mL
8,Cc1sc(C(=O)Nc2ccc(Br)cc2C(=O)O)cc1S(=O)(=O)Nc1ccc2c(c1)OCCO2,8 µg/mL
9,O=C(O)c1cc(Br)ccc1NC(=O)c1cc2ccccc2n1CC1CCCCC1,4 µg/mL
10,O=C(O)c1cc(Br)ccc1NC(=O)c1noc2cc(Cl)ccc12,1 µg/mL
11,CC(C)(C)O/N=C1\CCn2c(C(=O)Nc3ccc(C#N)cc3C(=O)O)cc3cccc1c32,1 µg/mL
12,O=C(Nc1ccc(Br)cc1C(=O)O)c1csc(S(=O)(=O)NC2Cc3ccccc3C2)c1,8 µg/mL
13,O=C(Nc1ccc(Br)cc1C(=O)O)c1cc(CCCc2ccccc2)on1,0.25 µg/mL
14,O=C(O)c1cc(Br)ccc1NC(=O)c1ccnc2ccccc12,> 128 µg/mL
15,COc1ccc(C(=O)Nc2ccc(C#N)cc2C(=O)O)c(OC)n1,> 128 µg/mL
16,N#Cc1ccc(NC(=O)c2noc3cc(Cl)ccc23)c(C(=O)O)c1,1 µg/mL
17,CC(=O)OCC(=O)Nc1ccc2cc(C(=O)Nc3ccc(C#N)cc3C(=O)O)n(C)c2c1,1 µg/mL
18,COc1ccccc1-c1cc(C(=O)Nc2ccc(Cl)cc2C(=O)O)no1,0.125 µg/mL
19,Cn1c(C(=O)Nc2ccc(Br)cc2C(=O)O)cc2ccccc21,0.5 µg/mL
20,COCCOCCOCC(=O)Nc1cccc2cc(C(=O)Nc3ccc(C#N)cc3C(=O)O)[nH]c12,4 µg/mL
21,N#Cc1ccc(NC(=O)c2ccc3c(c2)S(=O)(=O)N(c2ccc(Cl)cc2)CC3)c(C(=O)O)c1,0.25 µg/mL
22,COCC(C)NCC(O)COc1cccc2cc(C(=O)Nc3ccc(C#N)cc3C(=O)O)n(C)c12.Cl (stereo not shown),1 µg/mL

row,Compound,MIC
1,CCCCCCSc1ccc(C(=O)Nc2ccc(Cl)cc2C(=O)O)cn1,0.125 µg/mL
2,COc1ccc(-c2cnc(C(=O)Nc3ccc(Br)cc3C(=O)O)o2)cc1,2 µg/mL
3,CCCCCCSc1cnc(C(=O)Nc2ccc(Br)cc2C(=O)O)cn1,0.5 µg/mL
4,Cn1c(C(=O)Nc2ccc(C#N)cc2C(=O)O)c(Br)c2cccc(OCc3ccccc3)c21,1 µg/mL
5,Cn1c(C(=O)Nc2ccc(C#N)cc2C(=O)O)cc2cccc(Br)c21,0.5 µg/mL
6,CCCCCSc1nnc(C(=O)Nc2ccc(Br)cc2C(=O)O)o1,0.25 µg/mL
7,Cc1ccsc1C(=O)Nc1ccc(C#N)cc1C(=O)O,1 µg/mL
8,CC(=O)Nc1ccc(-c2cc3onc(C(=O)Nc4ccc(Br)cc4C(=O)O)c3cc2NC(C)=O)c(C(F)(F)F)c1,0.0075 µg/mL
9,CCCn1c(C(=O)Nc2ccc(C#N)cc2C(=O)O)cc2ccccc21,2 µg/mL
10,CCCSc1ccc(C(=O)Nc2ccc(C#N)cc2C(=O)O)cn1.Cl,0.5 µg/mL
11,CCCCSc1cnc(C(=O)Nc2ccc(C#N)cc2C(=O)O)cn1,0.125 µg/mL
12,COc1ccccc1-c1cc(C(=O)Nc2ccc(C#N)cc2C(=O)O)no1,0.125 µg/mL
13,N#Cc1ccc(NC(=O)c2cc3cccc(NC(=O)Cc4ccc5ccccc5c4)c3[nH]2)c(C(=O)O)c1,0.25 µg/mL
14,N#Cc1ccc(NC(=O)c2noc3cc(OS(=O)(=O)c4ccccc4)ccc23)c(C(=O)O)c1,0.5 µg/mL
15,CC(=O)Oc1ccc2c(C(=O)Nc3ccc(C#N)cc3C(=O)O)noc2c1,1 µg/mL
16,CC1(C)OCC(/C=C/c2cnc(C(=O)Nc3ccc(Br)cc3C(=O)O)cn2)O1 (stereo not shown),32 µg/mL
17,O=C(Nc1ccc(Br)cc1C(=O)O)c1csc(S(=O)(=O)N2CCc3ccc(Cl)cc32)c1,8 µg/mL
18,CCC(C)C(=O)Nc1cccc2cc(C(=O)Nc3ccc(C#N)cc3C(=O)O)[nH]c12 (stereo not shown),1 µg/mL
19,O=C(Nc1ccc(I)cc1C(=O)O)c1cc(-c2ccccc2)on1,1 µg/mL
20,N#Cc1ccc(NC(=O)c2cc(-c3ccccc3Oc3ccc(-c4ccccc4)cc3)on2)c(C(=O)O)c1,16 µg/mL
21,Cn1cccc1-c1cncc(C(=O)Nc2ccc(C#N)cc2C(=O)O)c1,8 µg/mL
22,N#Cc1ccc(NC(=O)c2cc3cccc(NC(=O)CSc4ccccc4)c3[nH]2)c(C(=O)O)c1,0.5 µg/mL

row,Compound,MIC
1,Cc1c(S(=O)(=O)NC2CCN(Cc3ccccc3)CC2)csc1C(=O)Nc1ccc(Br)cc1C(=O)O,> 128 µg/mL
2,Cc1c(S(=O)(=O)Nc2ccc(N3CCOCC3)cc2)csc1C(=O)Nc1ccc(Br)cc1C(=O)O,64 µg/mL
3,CCCCSc1ccc(C(=O)Nc2ccc(C#N)cc2C(=O)O)cn1,0.25 µg/mL
4,Cn1cc(C(=O)Nc2ccc(C#N)cc2C(=O)O)c2ccccc21,16 µg/mL
5,N#Cc1ccc(NC(=O)c2cc3cccc(NC(=O)Cc4cccs4)c3[nH]2)c(C(=O)O)c1,0.5 µg/mL
6,O=C(Nc1ccc(O)cc1C(=O)O)c1cc(-c2ccccc2-c2ccccc2)on1,0.125 µg/mL
7,CCNc1ccc2onc(C(=O)Nc3ccc(C#N)cc3C(=O)O)c2c1,0.5 µg/mL
8,CCN(C(C)=O)c1ccc2onc(C(=O)Nc3ccc(C#N)cc3C(=O)O)c2c1,0.25 µg/mL
9,Cn1c(C(=O)Nc2ccc(C#N)cc2C(=O)O)cc2ccc(NC(=O)c3ccco3)cc21,2 µg/mL
10,O=C(Nc1ccc(Cl)cc1C(=O)O)c1cc(-c2ccc(C(F)(F)F)cc2)on1,0.5 µg/mL
11,N#Cc1ccc(NC(=O)c2cnc(-c3ccccc3C(F)(F)F)cn2)c(C(=O)O)c1,32 µg/mL
12,N#Cc1ccc(NC(=O)c2cc3cccc(NC(=O)CCc4ccccc4)c3[nH]2)c(C(=O)O)c1,0.5 µg/mL
13,N#Cc1ccc(NC(=O)c2cc3cccc(NC(=O)COc4ccc5ccccc5c4)c3[nH]2)c(C(=O)O)c1,0.25 µg/mL
14,CCCCCCSc1cnc(C(=O)Nc2ccc(Cl)cc2C(=O)O)cn1,0.5 µg/mL
15,CCCCNCC(O)COc1cccc2cc(C(=O)Nc3ccc(C#N)cc3C(=O)O)n(C)c12.Cl (stereo not shown),0.5 µg/mL
16,Cn1nc(C(=O)Nc2ccc(Br)cc2C(=O)O)cc1-c1ccccc1,32 µg/mL
17,N#Cc1ccc(NC(=O)c2ccc(SCCCCO)nc2)c(C(=O)O)c1,2 µg/mL
18,Cn1c(C(=O)Nc2ccc(C#N)cc2C(=O)O)cc2cccc(OCC3COc4ccccc4O3)c21 (stereo not shown),0.125 µg/mL
19,Cl.Cn1c(C(=O)Nc2ccc(C#N)cc2C(=O)O)cc2cccc(OCC(O)CNc3ccccc3)c21 (stereo not shown),0.125 µg/mL
20,CCCCCCSc1ccc(C(=O)Nc2ccc(Br)cc2C(=O)O)nc1,0.5 µg/mL
21,CCCCCCSc1cnc(C(=O)Nc2ccc(C#N)cc2C(=O)O)nc1,2 µg/mL
22,N#Cc1ccc(NC(=O)c2cc3cccn3cn2)c(C(=O)O)c1,32 µg/mL

row,Compound,MIC
1,COCCOCCCSc1ccc(C(=O)Nc2ccc(C#N)cc2C(=O)O)cn1,1 µg/mL
2,CC(=O)c1ccc(N2CCN(S(=O)(=O)c3cc(C(=O)Nc4ccc(C#N)cc4C(=O)O)sc3C)CC2)cc1,16 µg/mL
3,CON=C1CCn2c(C(=O)Nc3ccc(C#N)cc3C(=O)O)cc3cccc1c32,1 µg/mL
4,Cc1sc(C(=O)Nc2ccc(C#N)cc2C(=O)O)cc1S(=O)(=O)N1CCN(c2ncccn2)CC1,64 µg/mL
5,Cn1c(C(=O)Nc2ccc(C#N)cc2C(=O)O)cc2ccc(OCC3CC3)cc21,0.25 µg/mL
6,Cn1c(C(=O)Nc2ccc(C#N)cc2C(=O)O)cc2cccc(OCC3CCCCO3)c21 (stereo not shown),0.5 µg/mL
7,N#Cc1ccc(NC(=O)c2cc(CNC(=N)N)on2)c(C(=O)O)c1,128 µg/mL
8,N#Cc1ccc(NC(=O)c2cc3cccnc3s2)c(C(=O)O)c1,4 µg/mL
9,Cn1c(C(=O)Nc2ccc(C#N)cc2C(=O)O)cc2cccc(NC(=O)c3ccc(N=[N+]=[N-])c(I)c3)c21,> 128 µg/mL
10,COCOCC(OCOC)C(Cc1cnc(C(=O)Nc2ccc(Br)cc2C(=O)O)cn1)OC (stereo not shown),> 128 µg/mL
11,CC(C)CCSc1cnc(C(=O)Nc2ccc(C#N)cc2C(=O)O)cn1,0.125 µg/mL
12,CCC(CC)Oc1ccccc1-c1cc(C(=O)Nc2ccc(C#N)cc2C(=O)O)no1,4 µg/mL
13,N#Cc1ccc(NC(=O)c2onc3ccccc23)c(C(=O)O)c1,1 µg/mL
14,N#Cc1ccc(NC(=O)c2cc(-c3ccccc3F)on2)c(C(=O)O)c1,0.125 µg/mL
15,N#Cc1ccc(NC(=O)c2cncc(-c3cccc4cccnc34)c2)c(C(=O)O)c1,32 µg/mL
16,CCC(CC)Sc1ccc(C(=O)Nc2ccc(C#N)cc2C(=O)O)cn1,0.25 µg/mL
17,N#Cc1ccc(NC(=O)c2cc3cccc(OCc4ccccc4)c3[nH]2)c(C(=O)O)c1,0.125 µg/mL
18,N#Cc1ccc(NC(=O)c2cc3ccc(Cl)cc3[nH]2)c(C(=O)O)c1,2 µg/mL
19,CCN(CC)S(=O)(=O)c1ccc2onc(C(=O)Nc3ccc(C#N)cc3C(=O)O)c2c1,0.125 µg/mL
20,N#Cc1ccc(NC(=O)c2cc(-c3ccccc3)nc3ccccc23)c(C(=O)O)c1,16 µg/mL
21,CC(C)c1ccc(CC(=O)Nc2cccc3cc(C(=O)Nc4ccc(C#N)cc4C(=O)O)[nH]c23)cc1,0.5 µg/mL
22,O=C(Nc1ccc(I)cc1C(=O)O)c1cc(-c2ccccc2F)on1,0.5 µg/mL
